Measurements as given in patent publication EP4813979A1, “COMPOUND FOR EGFR PROTEIN DEGRADATION AND USE THEREOF” (TYK Medicines, Inc., priority 2023, dated 2025).

How the values were obtained:
Type in all cases: cell-based
HCC827 = experiment: Cell anti-proliferation experiment (CTG); settings: Homo sapiens, HCC827, 72 h, HCC827 (exon 19 deletion), class symbol
Description: (§1) H1975 has an EGFR: T790M/L858R double mutation, PC-9 has an EGFR exon 19 deletion, and HCC827 has an exon 19 deletion mutation. Baf3-19del- T790M -C797S (Baf3-DTC) is a stable Ba/F3 clone expressing exogenous EGFR gene bearing T790M, C797S, and […] triple amino acid mutations, purchased from KYinno. Baf3-L858R-T790M - C797S (Baf3-LTC) is a stable Ba/F3 clone expressing exogenous EGFR gene bearing […], T790M, and C797S triple mutations, purchased from KYinno. A549 is a wild-type EGFR, purchased from Nanjing Kebai Biotechnology. A431 is a wild-type EGFR, purchased from Shanghai Xinyu Biotechnology. CellCounting-Lite2.0, Trypsin EDTA, 37°C CO2 incubator, cell counter, EnVision Serial No. 1050454.
(§2) • A) Digested logarithmic phase cells with Trypsin EDTA, added culture medium to stop the reaction, and mixing well with a pipette to prepare a cell suspension. • B) Used Vi-cell to determine cell concentration, and prepared a suspension of 15,000-25,000 cells per milliliter according to the experimental purpose and cell characteristics. • C) After prepared the cell suspension, mixed it gently and added 100 µL to each well, so that the cell density to be tested is 1500-2500 per well.
(§3) • A) Weighed approximately 2 mg the compound and calculated the required volume of DMSO according to the formula: Compound mass (mg) * Compound purity (%) / Compound molecular weight * 1000. • B) Placed the inoculated cell culture plate into an incubator and incubated for about 24 hours. Then added compounds of varying concentrations. • C) Diluted the 10mM compound stock solution to […] with culture medium, and added the […] compound solution to the second column of the deep well plate in sequence, and added […] culture medium containing 0.5% DMSO to the third to eleventh columns. • D) Gradient dilution: Taked 125 µL solution from the second column and added it to the third column, mix well; then taked 125 µL solution from the third column and added it to the fourth column, repeated this operation until the tenth column. • E) Used a multichannel pipette, aspirated 25 µL the compound from the deep-well plate and added it to a 96-well culture plate. Repeated this process three times for each compound on the 96-well plate. This will ultimately create a concentration gradient of up to 10,000 nM at a 1:4 ratio on the 96-well plate.
(§4) • A) The effects of the compound were observed under an inverted microscope after the 96-well plate was incubated in an incubator for 72 hours. • B) Added 25 µL CTG solution to each well, placed on a shaker for 10 minutes, and read the […] of each well.
(§5) Calculate the % Cell Viability using the following formula: %Cell Viability = 100% × (Lum_Sample−Lum_LC)/(Lum_HC−Lum_LC) [formula] • Lum_HC: Cell readings from the 0.1% DMSO control group • Lum_Sample: Cell readings with added compound • Lum_LC: Blank culture medium reading
(§6) The IC50 value was obtained by curve fitting using GraphPad Prism 8 software.

A431 = experiment: Cell anti-proliferation experiment (CTG); settings: Homo sapiens, A-431, 72 h, A431 (wild-type EGFR), class symbol
Description: as §1, §2, §3, §4, §5, §6

[1] = test system: Baf3-L858R-T790M - C797S (Baf3-LTC); experiment: Cell anti-proliferation experiment (CTG); settings: 72 h, class symbol
Description: as §1, §2, §3, §4, §5, §6

H1975 = experiment: Cell anti-proliferation experiment (CTG); settings: Homo sapiens, NCI-H1975, 72 h, H1975 (EGFR T790M/L858R), class symbol
Description: as §1, §2, §3, §4, §5, §6

[2] = test system: Baf3-19del- T790M -C797S (Baf3-DTC); experiment: Cell anti-proliferation experiment (CTG); settings: 72 h, class symbol
Description: as §1, §2, §3, §4, §5, §6

A549 = experiment: Cell anti-proliferation experiment (CTG); settings: Homo sapiens, A549, 72 h, A549 (wild-type EGFR), class symbol
Description: as §1, §2, §3, §4, §5, §6

PC-9 = experiment: Cell anti-proliferation experiment (CTG); settings: Homo sapiens, PC-9, 72 h, PC-9 (EGFR exon 19 deletion), class symbol
Description: as §1, §2, §3, §4, §5, §6

[3] = target: EGFR in Baf3-L858R-T790M-C797S (Homo sapiens, UniProt P00533, C797S/L858R/T790M); experiment: EGFR PROTAC HTRF experiment (total EGFR degradation)
EGFR in Baf3-L858R-T790M-C797S, sequence (P00533 25-1210 T790M/C797S/L858R): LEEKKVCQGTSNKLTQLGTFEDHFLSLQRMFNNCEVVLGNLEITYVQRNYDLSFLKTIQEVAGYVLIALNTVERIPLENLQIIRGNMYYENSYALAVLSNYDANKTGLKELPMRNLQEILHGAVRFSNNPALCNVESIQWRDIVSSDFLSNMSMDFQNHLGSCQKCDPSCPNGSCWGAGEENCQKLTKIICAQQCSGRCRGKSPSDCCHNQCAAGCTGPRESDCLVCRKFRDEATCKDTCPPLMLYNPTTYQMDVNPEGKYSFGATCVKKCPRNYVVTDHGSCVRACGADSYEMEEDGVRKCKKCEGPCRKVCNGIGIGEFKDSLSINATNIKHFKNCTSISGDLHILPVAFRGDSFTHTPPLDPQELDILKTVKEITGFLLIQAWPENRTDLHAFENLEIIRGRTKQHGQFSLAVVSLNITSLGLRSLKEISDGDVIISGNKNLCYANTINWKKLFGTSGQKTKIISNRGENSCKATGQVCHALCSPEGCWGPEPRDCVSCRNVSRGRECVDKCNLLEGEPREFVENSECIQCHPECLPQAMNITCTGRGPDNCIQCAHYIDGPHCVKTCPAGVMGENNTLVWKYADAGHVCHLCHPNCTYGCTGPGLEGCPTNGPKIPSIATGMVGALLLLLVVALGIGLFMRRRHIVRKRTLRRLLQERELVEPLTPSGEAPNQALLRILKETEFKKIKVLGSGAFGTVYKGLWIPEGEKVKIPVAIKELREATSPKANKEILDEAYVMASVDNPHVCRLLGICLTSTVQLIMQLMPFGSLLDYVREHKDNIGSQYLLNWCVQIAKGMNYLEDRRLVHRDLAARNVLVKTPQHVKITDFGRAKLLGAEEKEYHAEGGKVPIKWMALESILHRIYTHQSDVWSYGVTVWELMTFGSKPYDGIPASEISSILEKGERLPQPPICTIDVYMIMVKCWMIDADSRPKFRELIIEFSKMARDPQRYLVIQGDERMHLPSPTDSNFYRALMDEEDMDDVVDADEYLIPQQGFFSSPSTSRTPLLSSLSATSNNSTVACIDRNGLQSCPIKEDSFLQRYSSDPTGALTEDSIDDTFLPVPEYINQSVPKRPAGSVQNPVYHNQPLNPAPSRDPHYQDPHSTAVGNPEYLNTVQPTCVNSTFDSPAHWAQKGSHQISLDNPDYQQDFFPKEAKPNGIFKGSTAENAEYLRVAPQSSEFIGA
Description: (§7) [table] Among them, B[…] -C797S (abbreviated as Baf3-DTC) is a stable Ba/F3 clone expressing exogenous EGFR gene bearing T790M, C797S and […] triple amino acid mutations, purchased from KYinno; Baf3-L858R-T790M - C797S (abbreviated as Baf3-LTC) is a stable Ba/F3 clone expressing exogenous EGFR gene bearing […], T790M, C797S triple mutations, purchased from KYinno. [table] [table] Dilutded Eu and d2 antibodies 2μl per well with detection buffer 20-fold. Then mixed the two antibody vials thoroughly. [table] Opened EnVision , locate the HTRF program, configured the board, and then read […]. The fitted curve, DC50 and Dmax of this compound could be generated using GraphPad Prism .

[4] = target: EGFR in Baf3-19del-T790M-C797S (Homo sapiens, UniProt P00533, C797S/DEL746-750/T790M); experiment: as above
EGFR in Baf3-19del-T790M-C797S, sequence (P00533 with tags, fused parts or gaps DEL746-750/T790M/C797S): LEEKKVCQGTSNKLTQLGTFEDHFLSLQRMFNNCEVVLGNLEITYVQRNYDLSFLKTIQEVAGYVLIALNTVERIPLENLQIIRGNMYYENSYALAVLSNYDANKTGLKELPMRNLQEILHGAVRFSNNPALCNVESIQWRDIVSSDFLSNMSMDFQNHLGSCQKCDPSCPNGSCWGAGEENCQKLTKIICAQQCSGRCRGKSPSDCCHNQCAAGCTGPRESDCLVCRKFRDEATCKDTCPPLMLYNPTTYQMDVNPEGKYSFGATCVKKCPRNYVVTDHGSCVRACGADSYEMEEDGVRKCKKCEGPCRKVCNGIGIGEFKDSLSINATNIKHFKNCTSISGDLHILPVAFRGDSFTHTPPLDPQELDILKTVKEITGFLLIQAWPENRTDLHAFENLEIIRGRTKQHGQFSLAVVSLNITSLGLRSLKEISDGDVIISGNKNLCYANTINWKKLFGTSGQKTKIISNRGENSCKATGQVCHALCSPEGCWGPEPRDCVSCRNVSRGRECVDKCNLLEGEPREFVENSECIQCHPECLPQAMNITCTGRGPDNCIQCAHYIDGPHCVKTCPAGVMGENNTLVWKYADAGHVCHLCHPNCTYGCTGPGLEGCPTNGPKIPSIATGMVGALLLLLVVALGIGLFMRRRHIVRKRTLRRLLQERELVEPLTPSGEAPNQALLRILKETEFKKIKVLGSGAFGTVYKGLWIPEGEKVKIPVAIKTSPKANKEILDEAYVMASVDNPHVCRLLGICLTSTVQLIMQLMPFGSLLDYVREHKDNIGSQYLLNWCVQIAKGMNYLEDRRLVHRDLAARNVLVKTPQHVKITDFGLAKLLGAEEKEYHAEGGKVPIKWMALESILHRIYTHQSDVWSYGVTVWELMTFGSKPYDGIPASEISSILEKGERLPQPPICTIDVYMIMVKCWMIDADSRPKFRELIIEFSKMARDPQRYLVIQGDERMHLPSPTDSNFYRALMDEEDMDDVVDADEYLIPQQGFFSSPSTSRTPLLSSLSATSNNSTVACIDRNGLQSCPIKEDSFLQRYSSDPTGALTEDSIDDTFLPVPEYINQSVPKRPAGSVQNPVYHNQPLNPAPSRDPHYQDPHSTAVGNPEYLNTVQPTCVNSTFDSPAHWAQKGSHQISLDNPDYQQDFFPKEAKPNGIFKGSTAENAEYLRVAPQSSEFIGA
Description: as §7

| IC50 (HCC827) [nM] | IC50 (A431) [nM] | IC50 [1] [nM] | IC50 (H1975) [nM] | IC50 [2] [nM] | IC50 (A549) [nM] | IC50 (PC-9) [nM] | SMILES | DC50 ([3]; Baf3-LTC, incubated 16 hours, HTRF total EGFR, read-out: Baf3-LTC DC50) [nM] | Dmax ([3]; read-out: Baf3-LTC Dmax) [%] | DC50 ([4]; Baf3-DTC, incubated 16 hours, HTRF total EGFR, read-out: Baf3-DTC DC50) [nM] | Dmax ([4]; read-out: Baf3-DTC Dmax) [%] |
| --- | --- | --- | --- | --- | --- | --- | --- | --- | --- | --- | --- |
| 10 to 100 | 100 to 1000 | 10 to 100 | 10 to 100 | 10 to 100 | 100 to 1000 | 100 to 1000 | CCc1cc(Nc2ncc(Br)c(Nc3ccccc3P3(=O)CCCC3)n2)c(OC)cc1N1CC2(CCN(C(=O)CN3CCC(c4cc5c(cc4F)c(N4CCC(=O)NC4=O)nn5C)CC3)CC2)C1 [TB-008] |  |  |  |  |
| > 1000 | > 1000 | 10 to 100 | < 10 | 10 to 100 | > 1000 | 100 to 1000 | CCc1cc(Nc2ncc(Cl)c(Nc3ccccc3C(=O)NC)n2)c(OC)cc1N1CC2(CN(C(=O)CN3CCC(c4cc5c(cc4F)c(N4CCC(=O)NC4=O)nn5C)C(F)(F)C3)C2)C1 (stereo not drawn) [TA-019] |  |  |  |  |
| 100 to 1000 | > 1000 | 10 to 100 | 100 to 1000 | 10 to 100 | > 1000 | 100 to 1000 | COc1cc(N2CCN(C(=O)CN3CCC(c4cc5c(cc4F)c(N4CCC(=O)NC4=O)nn5C)C(F)(F)C3)CC2)ccc1Nc1ncc(Cl)c(Nc2ccccc2P(C)(C)=O)n1 (stereo not drawn) [TC-211] |  |  |  |  |
|  |  |  |  |  |  |  | CCc1ccc(Nc2nc(Nc3cc(CC)c(N4CCN(C(=O)CN5CCC(c6cc7c(cc6F)c(N6CCC(=O)NC6=O)nn7C)C(F)(F)C5)CC4)cc3OC)ncc2Cl)c(P(C)(C)=O)c1 (stereo not drawn) [TA-035] | 10 to 100 | 70 to 100 | 10 to 100 | 70 to 100 |
| 10 to 100 | 100 to 1000 | < 10 | 10 to 100 | < 10 | 100 to 1000 | 100 to 1000 | COc1cc(N2CCN(C(=O)CN3CCC(c4cc5c(cc4F)c(N4CCC(=O)NC4=O)nn5C)C(F)(F)C3)CC2)c(-c2cnn(C)c2)cc1Nc1ncc(Br)c(Nc2ccccc2P(C)(C)=O)n1 (stereo not drawn) [TC-224] |  |  |  |  |
| 100 to 1000 | > 1000 | 10 to 100 | 100 to 1000 | 10 to 100 | > 1000 | > 1000 | CCc1cc(Nc2ncc(Br)c(Nc3ccccc3P(C)(C)=O)n2)c(OC)cc1N1CCN(C(=O)CN2CCC(c3cc4c(cc3F)c(N3CCC(=O)NC3=O)nn4-c3ccccc3)C(F)(F)C2)CC1 (stereo not drawn) [TC-150] |  |  |  |  |
